Test results taken from patent US10973820B2, “Compounds for treatment of diseases related to DUX4 expression” (Facio Intellectual Property B.V., priority 2017, dated 2021).
Read-outs that look alike come from different tables or passages of the source.

Tests used:
CK1 α = CK1 α (Homo sapiens, UniProt P48729); experiment: inhibition of CK1 α by CK1 inhibitors; type: biochemical
From the text: IC50 values for CK1 can be determined using any method known in the art, for example as described in WO2011051858, WO2015119579, EP2949651, or US2005/0131012. Suitable assays can use a peptide substrate and a readout method, for example using the Kinase-Glo assay (Promega, part # V672A).

p38 = p38 (Homo sapiens, UniProt Q16539); experiment: inhibition of p38 by CK1 inhibitors; type: biochemical; conditions: p38α
CK1 ε = CK1 ε (Homo sapiens, UniProt P49674); experiment: inhibition of CK1 ε by CK1 inhibitors; type: biochemical
From the text: (§1) Suitable assays can use a peptide substrate and a readout method, for example using the Kinase-Glo assay (Promega, part # V672A).

CK1 δ = CK1 δ (Homo sapiens, UniProt P48730); experiment: inhibition of CK1 δ by CK1 inhibitors; type: biochemical
From the text: as §1

DUX4 [1] = experiment: DUX4 repression, high-content immunocytochemistry assay in primary FSHD myotubes; type: cell-based, human; conditions: for EC50: Homo sapiens, Myotube, read-out: EC50 DUX4
From the text: A quantitative assay readout was developed based on script-based image analysis. […] To analyse the images, an automated script was developed, enabling the detection of nuclei, myotube borders and DUX4 signals, with the script also detecting artefacts to reduce false positive signals. The script enabled multiple validated readouts including the number of DUX4 positive nuclei and nuclei clusters, the fusion index, myotube area, myotube width and myotube skeleton length (see FIG. 2). Additionally, the total nuclei count was included as a measure of cell loss or compound toxicity.
A compound library containing approximately 5000 annotated compounds was screened in the high-content assay. For this purpose, primary myoblasts were seeded in 384 well plates after which the growth medium was replaced with differentiation medium. After 3 days of differentiation, cells were treated with library compounds (in duplicate on different screening plates) for 15 h, after which they were fixed and stained with antibodies against DUX4, antibodies against myosin heavy chain (MHC), and with DAPI (4′,6-diamidino-2-phenylindole). Script-based analysis provided readouts for DUX4 expression (count of DUX4-positive nuclei or DUX4 intensity) and for potential toxicity (fusion index and nuclei count).
Compounds were incubated with primary FSHD cells for 15 hours, as indicated by the arrow in FIG. 4A.
Compounds are administered either 15 h before fixation, resembling the original screening protocol, or 72 h before fixation (grey arrow). In the latter case, compounds are present during the whole differentiation process.

DUX4 [2] = conditions: immortalised differentiated myotube cultures; cited from earlier work
pancreatic tumor cell = conditions: in vitro and in vivo; cited from earlier work
[3] = primary FSHD cells, compound incubation 15 hours

p38, sequence (Q16539 whole entry): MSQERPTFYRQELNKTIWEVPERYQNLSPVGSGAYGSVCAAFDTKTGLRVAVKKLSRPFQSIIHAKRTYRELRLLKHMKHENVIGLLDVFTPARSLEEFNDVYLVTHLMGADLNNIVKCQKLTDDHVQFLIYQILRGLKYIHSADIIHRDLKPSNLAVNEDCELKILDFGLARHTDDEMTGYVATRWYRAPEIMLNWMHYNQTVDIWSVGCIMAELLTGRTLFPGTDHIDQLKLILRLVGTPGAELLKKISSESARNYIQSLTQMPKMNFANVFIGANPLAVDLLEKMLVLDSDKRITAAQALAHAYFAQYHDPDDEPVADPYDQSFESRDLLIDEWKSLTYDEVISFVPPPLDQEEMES
CK1 α, sequence (P48729 whole entry): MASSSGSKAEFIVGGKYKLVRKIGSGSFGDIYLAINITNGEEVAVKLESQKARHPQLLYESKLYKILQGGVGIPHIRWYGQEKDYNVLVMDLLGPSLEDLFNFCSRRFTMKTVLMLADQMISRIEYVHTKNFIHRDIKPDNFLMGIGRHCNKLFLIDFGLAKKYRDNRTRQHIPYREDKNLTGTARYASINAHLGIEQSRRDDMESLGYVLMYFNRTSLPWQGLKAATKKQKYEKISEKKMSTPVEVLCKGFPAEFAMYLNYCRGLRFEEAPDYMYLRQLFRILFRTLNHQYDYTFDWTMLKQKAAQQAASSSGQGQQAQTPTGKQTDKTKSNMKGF
CK1 δ, sequence (P48730 whole entry): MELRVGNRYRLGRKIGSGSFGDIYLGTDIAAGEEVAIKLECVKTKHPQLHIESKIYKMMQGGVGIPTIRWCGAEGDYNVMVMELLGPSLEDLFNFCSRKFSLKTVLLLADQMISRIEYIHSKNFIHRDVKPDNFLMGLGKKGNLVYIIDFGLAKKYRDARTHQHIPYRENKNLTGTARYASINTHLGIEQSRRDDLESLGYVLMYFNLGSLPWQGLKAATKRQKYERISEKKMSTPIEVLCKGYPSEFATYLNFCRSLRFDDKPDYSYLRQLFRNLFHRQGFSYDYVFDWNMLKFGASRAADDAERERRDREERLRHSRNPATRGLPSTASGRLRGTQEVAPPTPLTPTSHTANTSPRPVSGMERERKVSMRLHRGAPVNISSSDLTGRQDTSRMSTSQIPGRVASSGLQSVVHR
CK1 ε, sequence (P49674 whole entry): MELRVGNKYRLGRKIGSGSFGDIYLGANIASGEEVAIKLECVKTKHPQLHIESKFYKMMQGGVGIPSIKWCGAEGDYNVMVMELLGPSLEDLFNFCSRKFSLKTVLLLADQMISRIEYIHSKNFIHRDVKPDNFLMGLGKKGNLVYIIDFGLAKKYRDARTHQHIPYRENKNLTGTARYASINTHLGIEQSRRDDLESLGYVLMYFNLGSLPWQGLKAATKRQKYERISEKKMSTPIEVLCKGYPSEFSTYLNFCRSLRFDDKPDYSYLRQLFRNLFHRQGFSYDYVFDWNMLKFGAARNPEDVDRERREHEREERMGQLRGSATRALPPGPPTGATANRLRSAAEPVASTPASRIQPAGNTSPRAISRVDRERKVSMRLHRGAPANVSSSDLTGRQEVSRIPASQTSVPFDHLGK

SMILES	IC50 (CK1 α) [nM]	IC50 (p38) [nM]	IC50 (CK1 ε) [nM]	IC50 (CK1 δ) [nM]	EC50 (DUX4 [1]; [3]) [nM]	EC50 (DUX4 [1]; 15 h) [nM]	expression of DUX4 (DUX4 [2])	effect on DUX4 expression (DUX4 [1]; irrespective of treatment time (15 h or 72 h))	pancreatic tumor cell growth (pancreatic tumor cell)
CC1(C)CN(c2ccc3nc(-c4ccc(F)cc4)c(-c4ccncc4)n3n2)CCN1 [Compound A]	30	13	12	19	50	–	–	–	–
Fc1cccc(-n2cnc3c(NCc4nc5ccc(F)c(F)c5[nH]4)nc(N4CCOCC4)nc32)c1 [SR-3029, reference compound]	> 10000	> 10000	–	–	–	50	–	–	–
CN1Cc2nccc(-c3cn(C)nc3-c3ccc(F)cc3)c2C1=O [Compound E]	592	1110	–	–	–	1890	–	–	–
COc1cc(OC)c2c(=O)[nH]c(-c3cc(C)c(OCCO)c(C)c3)nc2c1 [RVX-208, reference compound]	–	–	–	–	–	–	can inhibit the expression of DUX4	did not show any effect on DUX4 expression	–
Fc1ccc(-c2nc3ccc(N4CCNCC4)nn3c2-c2ccncc2)cc1 [Compound H]	33	25	16	22	10	–	–	–	–
Cn1cc(-c2ccnc3c2C(=O)N(C2CCOCC2)C3)c(-c2ccc(F)cc2)n1 [Compound F]	561	677	72	18	2590	–	–	–	–
COc1cc(OC)c(C=C2C(O)=Nc3ccccc32)c(OC)c1 [IC261]	–	–	–	–	–	–	–	–	reduces pancreatic tumor cell growth
Cn1cc(-c2ccnc3c2C(=O)OC3)c(-c2ccc(F)cc2)n1 [Compound D]	644	569	51.6	33.1	1410	–	–	–	–
Nc1nccc(-c2c(-c3ccc(F)cc3)ncn2C2CCCCC2)n1 [PF-670462, reference compound]	320	32	–	–	470	–	–	–	–
Nc1nccc(-c2c(-c3ccc(F)cc3)ncn2C2CCN(Cc3ccon3)CC2)n1 [PF-5006739, reference compound]	123	74	27	20	820	–	–	–	–
